In publication PMC5454865 (International Journal of Molecular Sciences, 2017):
“And” between values parts separate entries of the source, which are not always exact repeats. Equal entries are not always repeated. Where two headings read alike, the source gives them in different places. Blank lines part the entries; values can stand above or below the compound they belong to.

Experiments:
CYP3A4 [1] = target: T1, CYP3A4 (Homo sapiens, UniProt P08684); settings: human liver microsomes; cited from earlier work
CYP2C9 [2] = target: T2, CYP2C9 (Homo sapiens, UniProt P11712); parameters: incubated with human liver microsomes (0.1 mg/mL); tissue Corning Life Sciences 452161; host or cells: pooled human liver microsomes; settings: cited from earlier work
CYP2B6 = target: T3, CYP2B6 (Homo sapiens, UniProt P20813); assay: CYP2B6-catalyzed bupropion hydroxylation, LC-MS/MS; type: in vitro ADME; settings: human liver microsomes
T3 construct: pooled human liver microsomes (0.2 mg/mL), 50 μM bupropion; tissue Corning Life Sciences 452161; host or cells: pooled human liver microsomes
T3 sequence (P20813 1-491): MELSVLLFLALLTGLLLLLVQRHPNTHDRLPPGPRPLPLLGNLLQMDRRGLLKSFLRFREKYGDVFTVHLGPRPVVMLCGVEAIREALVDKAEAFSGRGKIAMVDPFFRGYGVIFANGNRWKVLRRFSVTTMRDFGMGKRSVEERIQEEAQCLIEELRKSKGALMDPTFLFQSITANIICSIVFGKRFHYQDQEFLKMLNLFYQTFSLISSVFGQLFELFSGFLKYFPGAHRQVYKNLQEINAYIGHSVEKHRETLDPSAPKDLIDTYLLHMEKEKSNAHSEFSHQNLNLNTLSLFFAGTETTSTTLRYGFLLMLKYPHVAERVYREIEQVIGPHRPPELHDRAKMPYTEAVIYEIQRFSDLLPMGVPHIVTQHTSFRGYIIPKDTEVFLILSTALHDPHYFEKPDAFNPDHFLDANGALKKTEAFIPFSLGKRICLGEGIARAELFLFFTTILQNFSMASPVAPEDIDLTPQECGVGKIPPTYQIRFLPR
Experimental: After 3 min pre-incubation at 37 °C, the reaction mixtures were incubated with the addition of NADPH in a shaking water bath for 15 min at 37 °C. The reaction was stopped by adding 100 μL of ice-cold d9-1′-hydroxybufuralol (internal standard) in methanol. The mixtures were centrifuged at 13,000× g for 4 min at 4 °C. All incubations were performed in triplicate, and the average values were used for the subsequent calculations. […] Then, the reaction mixtures were incubated with the addition of NADPH and bupropion for 15 min at 37 °C. The control reaction was performed by the addition of acetonitrile instead of the test compounds. Hydroxybupropion concentrations were quantified using the LC-MS/MS method described above; the SRM transitions for hydroxybupropion and d9-1′-hydroxybufuralol were 256.1 > 238.0 and 287.2 > 187.0, respectively.
The IC50 values were calculated using SigmaPlot ver.

CYP2C9 [3] = target: T2, CYP2C9; settings: microsomes
Experimental: (§1) After 3 min pre-incubation at 37 °C, the reaction mixtures were incubated for 15 min at 37 °C with the addition of NADPH in a shaking water bath. The reaction was stopped by adding 100 μL of ice-cold methanol containing internal standards (d9-1′-hydroxybufuralol for 1′-hydroxybufuralol, 4′-hydroxydiclofenac, 7-hydroxycoumarin, 1′-hydroxymidazolam, and 4′-hydroxymephenytoin; ^13C2, ^15N-acetaminophen for acetaminophen and N-desethylamodiaquine). The mixtures were centrifuged at 13,000× g for 4 min at 4 °C. All assays were performed in triplicate and the average values were used for the subsequent calculations. […] Then, the reaction mixtures were incubated with addition of the seven-CYP probe substrate cocktail for 15 min at 37 °C. The control reaction was performed by adding acetonitrile instead of the test compounds.
(§2) Seven metabolites were simultaneously determined using a tandem mass spectrometer (TSQ Quantum Access; Thermo Scientific, San Jose, CA, USA) equipped with an electrospray ionization (ESI) source coupled to a NANOSPACE SI-2 LC system (Shiseido, Tokyo, Japan). The column and autosampler temperatures were 50 and 6 °C, respectively. The ESI source settings for the ionization of metabolites were as follows: polarity, positive ion mode; capillary voltage, 4200 V; capillary temperature, 330 °C; vaporizer temperature, 350 °C; auxiliary gas pressure, 15 psi; and sheath gas pressure, 35 psi. […] Analytical data were processed using Xcalibur™ software (Thermo Scientific, San Jose, CA, USA).
(§3) The IC50 values were calculated using SigmaPlot ver. 11.0 (Systat Software, Inc., San Jose, CA, USA).

CYP2C8 [4] = target: T4, CYP2C8 (Homo sapiens, UniProt P10632)
T4 sequence (P10632 1-490): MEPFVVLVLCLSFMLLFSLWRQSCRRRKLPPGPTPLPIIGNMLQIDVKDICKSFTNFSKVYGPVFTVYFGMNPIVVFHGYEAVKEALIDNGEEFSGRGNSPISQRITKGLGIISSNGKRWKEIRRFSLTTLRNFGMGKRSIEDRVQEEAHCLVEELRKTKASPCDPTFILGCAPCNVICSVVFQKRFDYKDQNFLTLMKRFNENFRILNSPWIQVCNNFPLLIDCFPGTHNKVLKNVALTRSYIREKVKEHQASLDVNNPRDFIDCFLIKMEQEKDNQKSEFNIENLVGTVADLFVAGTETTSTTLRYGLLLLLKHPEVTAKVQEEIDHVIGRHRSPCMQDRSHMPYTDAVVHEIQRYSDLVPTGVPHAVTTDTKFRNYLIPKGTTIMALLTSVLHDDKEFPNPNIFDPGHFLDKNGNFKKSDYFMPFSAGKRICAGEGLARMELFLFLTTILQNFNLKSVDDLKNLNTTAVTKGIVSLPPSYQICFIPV
Experimental: as §1, §2, §3

CYP2C19 [5] = target: T5, CYP2C19 (Homo sapiens, UniProt P33261)
Experimental: as §1, §2, §3

CYP1A2 [6] = target: T6, CYP1A2 (Homo sapiens, UniProt P05177); settings: microsomes
T6 sequence (P05177 1-516): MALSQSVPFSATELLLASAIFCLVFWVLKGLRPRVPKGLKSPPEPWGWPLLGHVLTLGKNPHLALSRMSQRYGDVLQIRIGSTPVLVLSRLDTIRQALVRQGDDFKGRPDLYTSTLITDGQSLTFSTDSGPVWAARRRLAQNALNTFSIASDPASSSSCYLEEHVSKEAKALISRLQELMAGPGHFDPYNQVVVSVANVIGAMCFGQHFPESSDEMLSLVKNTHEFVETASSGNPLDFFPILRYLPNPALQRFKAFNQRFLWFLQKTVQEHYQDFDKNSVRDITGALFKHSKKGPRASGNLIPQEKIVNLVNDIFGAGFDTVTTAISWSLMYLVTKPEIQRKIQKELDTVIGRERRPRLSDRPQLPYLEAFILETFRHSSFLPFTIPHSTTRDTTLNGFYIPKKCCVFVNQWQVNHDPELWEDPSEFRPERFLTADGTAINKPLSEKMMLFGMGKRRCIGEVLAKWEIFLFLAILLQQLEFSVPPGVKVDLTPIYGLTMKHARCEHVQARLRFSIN
Experimental: as §1, §2, §3

[7] = test system: eight CYP enzymes (CYPs 1A2, 2A6, 2B6, 2C8, 2C9, 2C19, 2D6, and 3A4); assay: IC50 shift after 30-min pre-incubation with NADPH, panel of eight CYP enzymes; settings: human liver microsomes
Experimental: as §1
After 3 min pre-incubation at 37 °C, the reaction mixtures were incubated with the addition of NADPH in a shaking water bath for 15 min at 37 °C. The reaction was stopped by adding 100 μL of ice-cold d9-1′-hydroxybufuralol (internal standard) in methanol. The mixtures were centrifuged at 13,000× g for 4 min at 4 °C. All incubations were performed in triplicate, and the average values were used for the subsequent calculations. […] Then, the reaction mixtures were incubated with the addition of NADPH and bupropion for 15 min at 37 °C. […]

CYP3A4 [8] = target: T1, CYP3A4; settings: microsomes
Experimental: as §1, §2
(§4) The IC50 values were calculated using SigmaPlot ver. 11.0 (Systat Software, Inc., San Jose, CA, USA). Ki, kinact, and the inhibition mode were determined using Enzyme Kinetics ver. 1.1 (Systat Software, Inc.).

CYP2D6 [9] = target: T7, CYP2D6 (Homo sapiens, UniProt P10635); settings: microsomes
Experimental: as §1, §2, §4

CYP2A6 = target: T8, CYP2A6 (Homo sapiens, UniProt P11509); assay: CYP2A6-catalyzed coumarin 7-hydroxylation, substrate cocktail, LC-MS/MS; settings: human liver microsomes
T8 sequence (P11509 1-494): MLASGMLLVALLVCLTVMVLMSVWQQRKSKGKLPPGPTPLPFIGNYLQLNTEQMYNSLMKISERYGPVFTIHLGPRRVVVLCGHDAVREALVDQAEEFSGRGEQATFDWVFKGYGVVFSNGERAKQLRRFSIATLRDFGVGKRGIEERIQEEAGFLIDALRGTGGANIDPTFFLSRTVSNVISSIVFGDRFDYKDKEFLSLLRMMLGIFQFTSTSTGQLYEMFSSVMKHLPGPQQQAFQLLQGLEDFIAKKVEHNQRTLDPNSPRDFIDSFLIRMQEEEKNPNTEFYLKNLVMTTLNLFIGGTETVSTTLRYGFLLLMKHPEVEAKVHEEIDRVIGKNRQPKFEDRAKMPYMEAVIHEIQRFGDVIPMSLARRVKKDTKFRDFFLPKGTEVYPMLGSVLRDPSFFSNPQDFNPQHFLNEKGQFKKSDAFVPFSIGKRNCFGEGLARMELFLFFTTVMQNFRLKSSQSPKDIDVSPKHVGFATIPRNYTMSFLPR
Experimental: as §1, §2, §3

CYP2C19 [10] = target: T5, CYP2C19; settings: microsomes
Experimental: as §1, §2, §3

CYP2C8 [11] = target: T4, CYP2C8; assay: CYP2C8-catalyzed amodiaquine N-deethylation, substrate cocktail, LC-MS/MS; settings: human liver microsomes
Experimental: as §1, §2, §3

CYP2C19 [12] = target: T5, CYP2C19; assay: CYP2C19-catalyzed [S]-mephenytoin 4′-hydroxylation, substrate cocktail, LC-MS/MS; settings: human liver microsomes
Experimental: as §1, §2, §3

CYP2C9 [13] = target: T2, CYP2C9; assay: CYP2C9-catalyzed diclofenac 4′-hydroxylation, substrate cocktail, LC-MS/MS; settings: human liver microsomes
Experimental: as §1, §2, §3

CYP3A4 [14] = target: T1, CYP3A4; assay: CYP3A4-catalyzed midazolam 1′-hydroxylation, substrate cocktail, LC-MS/MS; settings: human liver microsomes
Experimental: as §1, §2, §4

CYP1A2 [15] = target: T6, CYP1A2; assay: CYP1A2-catalyzed phenacetin O-deethylation, substrate cocktail, LC-MS/MS; settings: human liver microsomes
Experimental: as §1, §2, §3

CYP2D6 [16] = target: T7, CYP2D6; assay: CYP2D6-catalyzed bufuralol 1′-hydroxylation, substrate cocktail, LC-MS/MS; settings: human liver microsomes
Experimental: as §1, §2, §4

T7 sequence (P10635 whole entry): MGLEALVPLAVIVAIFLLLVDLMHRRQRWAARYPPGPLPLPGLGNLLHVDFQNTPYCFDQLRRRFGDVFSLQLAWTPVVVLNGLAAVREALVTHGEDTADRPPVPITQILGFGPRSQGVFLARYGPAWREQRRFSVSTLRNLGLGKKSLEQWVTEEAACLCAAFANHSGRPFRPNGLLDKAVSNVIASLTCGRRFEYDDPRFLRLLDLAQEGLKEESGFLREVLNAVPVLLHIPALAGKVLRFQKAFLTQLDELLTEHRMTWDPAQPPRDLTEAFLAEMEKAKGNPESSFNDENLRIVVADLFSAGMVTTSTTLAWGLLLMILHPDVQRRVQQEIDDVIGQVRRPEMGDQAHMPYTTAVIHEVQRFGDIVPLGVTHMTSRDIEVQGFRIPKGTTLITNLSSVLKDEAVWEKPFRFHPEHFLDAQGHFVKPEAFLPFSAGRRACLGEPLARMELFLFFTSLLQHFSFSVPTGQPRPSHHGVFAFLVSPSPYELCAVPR
T2 sequence (P11712 whole entry): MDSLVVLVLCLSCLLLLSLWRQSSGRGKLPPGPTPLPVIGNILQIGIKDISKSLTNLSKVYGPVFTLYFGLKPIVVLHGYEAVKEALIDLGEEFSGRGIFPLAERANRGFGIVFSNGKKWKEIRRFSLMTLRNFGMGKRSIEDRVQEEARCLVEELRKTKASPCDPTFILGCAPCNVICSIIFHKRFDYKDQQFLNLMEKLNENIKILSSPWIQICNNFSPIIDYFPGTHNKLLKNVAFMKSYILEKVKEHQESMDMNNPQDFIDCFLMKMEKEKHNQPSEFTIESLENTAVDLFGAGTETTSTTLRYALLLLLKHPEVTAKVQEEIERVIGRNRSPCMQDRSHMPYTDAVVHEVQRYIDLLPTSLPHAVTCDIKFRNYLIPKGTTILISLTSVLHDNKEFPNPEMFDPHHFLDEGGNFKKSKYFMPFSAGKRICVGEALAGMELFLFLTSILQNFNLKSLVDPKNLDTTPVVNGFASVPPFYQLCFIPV
T1 sequence (P08684 whole entry): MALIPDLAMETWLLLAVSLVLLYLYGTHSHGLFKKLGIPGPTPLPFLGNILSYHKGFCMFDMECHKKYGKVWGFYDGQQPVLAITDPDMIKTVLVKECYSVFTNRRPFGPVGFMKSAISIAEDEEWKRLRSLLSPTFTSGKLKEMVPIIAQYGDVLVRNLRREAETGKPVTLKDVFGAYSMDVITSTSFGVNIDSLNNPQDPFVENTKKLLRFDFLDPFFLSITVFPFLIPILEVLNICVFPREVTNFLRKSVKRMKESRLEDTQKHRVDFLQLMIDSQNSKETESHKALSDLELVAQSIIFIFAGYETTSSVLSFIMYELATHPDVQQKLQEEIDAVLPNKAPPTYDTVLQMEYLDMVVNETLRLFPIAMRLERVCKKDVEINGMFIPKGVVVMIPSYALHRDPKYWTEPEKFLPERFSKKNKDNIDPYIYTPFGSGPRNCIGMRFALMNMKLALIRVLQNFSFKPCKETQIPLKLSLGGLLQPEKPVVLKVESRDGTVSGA
T5 sequence (P33261 whole entry): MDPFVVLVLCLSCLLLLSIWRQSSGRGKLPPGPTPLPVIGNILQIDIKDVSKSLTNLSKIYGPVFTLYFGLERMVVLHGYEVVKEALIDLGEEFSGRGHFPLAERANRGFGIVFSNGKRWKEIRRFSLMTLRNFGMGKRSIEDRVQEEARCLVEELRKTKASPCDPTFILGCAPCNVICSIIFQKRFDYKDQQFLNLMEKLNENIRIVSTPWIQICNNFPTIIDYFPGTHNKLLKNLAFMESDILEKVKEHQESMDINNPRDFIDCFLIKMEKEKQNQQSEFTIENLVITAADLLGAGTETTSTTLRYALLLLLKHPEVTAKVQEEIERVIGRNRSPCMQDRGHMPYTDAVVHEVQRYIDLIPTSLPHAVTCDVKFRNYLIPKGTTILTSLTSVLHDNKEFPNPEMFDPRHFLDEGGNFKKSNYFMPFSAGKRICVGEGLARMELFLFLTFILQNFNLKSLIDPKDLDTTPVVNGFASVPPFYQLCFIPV

Structure (SMILES): O=c1c2ccccc2nc2n1CCc1c-2[nH]c2ccccc12 [rutaecarpine]
kinact/Ki against CYP3A4 (CYP3A4 [1]): 5.98e+07 M⁻¹ s⁻¹

Structure (SMILES): CNCCC(Oc1ccc(C(F)(F)F)cc1)c1ccccc1 (centres unmarked) [fluoxetine]
kinact/Ki against CYP3A4 (CYP3A4 [1]): 5.33e+07 M⁻¹ s⁻¹

Structure (SMILES): COc1cc([C@@H]2c3cc4c(cc3C[C@H]3COC(=O)[C@@H]32)OCO4)cc(OC)c1OC [deoxypodophyllotoxin]
Ki (CYP2C9 [2]; read-out: Ki, CYP2C9 activity): 3.5 µM

Structure (SMILES): CC(C)=CCC/C(C)=C/COc1c2ccoc2cc2oc(=O)ccc12 [bergamottin]
kinact/Ki against CYP3A4 (CYP3A4 [1]): 3.3e+07 M⁻¹ s⁻¹

Structure (SMILES): COc1cc([C@@H]2c3cc4c(cc3[C@H](O)[C@H]3COC(=O)[C@H]23)OCO4)cc(OC)c1OC [podophyllotoxin]
Ki (CYP2C9 [2]; read-out: Ki, CYP2C9 activity): 2 µM
kinact/Ki against CYP3A4 (CYP3A4 [1]): 2.272e+08 M⁻¹ s⁻¹

Inhibition of CYP2B6 activity at 100 μM (CYP2B6): without inhibition
Inhibition of CYP2C9 activity at 100 μM (CYP2C9 [3]): without inhibition
IC50 (CYP2C8 [4]): 85 µM and 67.2 µM
IC50 (CYP2C19 [5]): 55.1 µM and 49.8 µM
Inhibition of CYP1A2 activity at 100 μM (CYP1A2 [6]): without inhibition
IC50 value shift of eight CYP enzymes after 30-min pre-incubation [7]: did not cause the IC50 value shift
Inhibition of CYP3A4 activity at 100 μM (CYP3A4 [8]): without inhibition
Inhibition of CYP2D6 activity at 100 μM (CYP2D6 [9]): without inhibition
Inhibition of CYP2A6 activity at 100 μM (CYP2A6): without inhibition
Structure (SMILES): COc1cc([C@H]2OC[C@H]3[C@@H]2CO[C@@H]3c2cc(OC)c(OC)c(OC)c2)cc(OC)c1OC [dimethyllirioresinol]

Inhibition of CYP2B6 activity at 100 μM (CYP2B6): negligibly inhibited
Inhibition of CYP2C9 activity at 100 μM (CYP2C9 [3]): negligibly inhibited
Inhibition of CYP1A2 activity at 100 μM (CYP1A2 [6]): negligibly inhibited
Inhibition of CYP2C19 activity at 100 μM (CYP2C19 [10]): negligibly inhibited
IC50 value shift of eight CYP enzymes after 30-min pre-incubation [7]: did not cause the IC50 value shift
Inhibition of CYP3A4 activity at 100 μM (CYP3A4 [8]): negligibly inhibited
Inhibition of CYP2C8 activity at 100 μM (CYP2C8 [11]): negligibly inhibited
Inhibition of CYP2D6 activity at 100 μM (CYP2D6 [9]): negligibly inhibited
Inhibition of CYP2A6 activity at 100 μM (CYP2A6): negligibly inhibited
Structure (SMILES): COc1ccc([C@H]2OC[C@H]3[C@@H]2CO[C@@H]3c2ccc(OC)c(OC)c2)cc1OC [eudesmin]

Inhibition of CYP2C19 activity at 100 μM (CYP2C19 [12]): negligibly inhibited
Inhibition of CYP2B6 activity at 100 μM (CYP2B6): negligibly inhibited
Inhibition of CYP2C9 activity at 100 μM (CYP2C9 [13]): negligibly inhibited
Inhibition of CYP3A4 activity at 100 μM (CYP3A4 [14]): negligibly inhibited
Inhibition of CYP1A2 activity at 100 μM (CYP1A2 [15]): negligibly inhibited
Inhibition of CYP2D6 activity at 100 μM (CYP2D6 [16]): negligibly inhibited
Inhibition of CYP2C8 activity at 100 μM (CYP2C8 [11]): negligibly inhibited
Inhibition of CYP2A6 activity at 100 μM (CYP2A6): negligibly inhibited
Structure (SMILES): COc1ccc([C@H]2OC[C@H]3[C@@H]2CO[C@@H]3c2cc(OC)c(OC)c(OC)c2)cc1OC [magnolin]

Structure (SMILES): CC[C@H]1OC(=O)[C@H](C)[C@@H](O[C@H]2C[C@@](C)(OC)[C@@H](O)[C@H](C)O2)[C@H](C)[C@@H](O[C@@H]2O[C@H](C)C[C@H](N(C)C)[C@H]2O)[C@](C)(OC)C[C@@H](C)C(=O)[C@H](C)[C@@H](O)[C@]1(C)O [clarithromycin]
kinact/Ki against CYP3A4 (CYP3A4 [1]): 1.7e+07 to 2.17e+08 M⁻¹ s⁻¹

Inhibition of CYP2C19 activity at 100 μM (CYP2C19 [12]): negligibly inhibited
Inhibition of CYP2B6 activity at 100 μM (CYP2B6): negligibly inhibited
Inhibition of CYP2C9 activity at 100 μM (CYP2C9 [13]): negligibly inhibited
Inhibition of CYP3A4 activity at 100 μM (CYP3A4 [14]): negligibly inhibited
Inhibition of CYP1A2 activity at 100 μM (CYP1A2 [15]): negligibly inhibited
Inhibition of CYP2D6 activity at 100 μM (CYP2D6 [16]): negligibly inhibited
Inhibition of CYP2C8 activity at 100 μM (CYP2C8 [11]): negligibly inhibited
Inhibition of CYP2A6 activity at 100 μM (CYP2A6): negligibly inhibited
Structure (SMILES): COc1ccc([C@@H]2OC[C@H]3[C@@H]2CO[C@@H]3c2cc(OC)c(OC)c(OC)c2)cc1OC [epimagnolin A]

Structure (SMILES): COc1cc([C@H]2OC[C@H]3[C@@H]2CO[C@@H]3c2ccc3c(c2)OCO3)cc(OC)c1OC [aschantin]
kinact, mechanism-based inhibition of CYP2C9 (CYP2C9 [2]): 0.044 min⁻¹
Ki (CYP2C9 [2]; read-out: Ki, mechanism-based inhibition of CYP2C9): 3.7 µM
kinact/Ki against CYP3A4 (CYP3A4 [1]): 8.2e+07 M⁻¹ s⁻¹
